How the values were obtained:
human hepatocytes = assay: Human hepatocyte stability assay; assay type: in vitro ADME; settings: for Clearance Category: human hepatocytes
Method: The hepatocyte stability assay measures the rate of disappearance of a compound from incubations with cryopreserved suspension hepatocytes from human. Positive controls, including Midazolam, Raloxifene and Dextromethorphan, are included in every experiment. Incubations consist of 1 μM tested compound and suspension of human hepatocytes (1×10^6 cells/mL) in supplemented Williams' E Medium with 10% FBS and 0.5% Penicillin-streptomycin. The hepatocyte suspension was incubated with intermittent shaking 900 rpm at 37° C., in a 5% CO2 incubator. The reaction was stopped by adding methanol containing internal standard (2 μM Tolbutamide) at 2, 10, 20, 40, 60 and 120 minutes after compound addition, depletion of the parent compound was monitored by LC-MS/MS analysis.

[1] = target: KRAS G12V binding to BRAF (Homo sapiens, UniProt P01116+P62937, G12V); assay: KRAS-BRAF with CYPA (500 nM) interaction assay (TR-FRET), G12V; assay type: biochemical; settings: 3 hours
Chain of KRAS G12V binding to BRAF (P01116 1-188 isoform P01116-2 G12V): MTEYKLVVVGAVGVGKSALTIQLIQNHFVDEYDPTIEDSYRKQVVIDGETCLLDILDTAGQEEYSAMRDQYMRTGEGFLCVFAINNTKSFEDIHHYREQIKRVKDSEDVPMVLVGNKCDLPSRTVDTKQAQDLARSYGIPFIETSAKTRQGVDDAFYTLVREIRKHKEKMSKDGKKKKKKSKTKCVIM
Chain of KRAS G12V binding to BRAF (P62937 whole entry): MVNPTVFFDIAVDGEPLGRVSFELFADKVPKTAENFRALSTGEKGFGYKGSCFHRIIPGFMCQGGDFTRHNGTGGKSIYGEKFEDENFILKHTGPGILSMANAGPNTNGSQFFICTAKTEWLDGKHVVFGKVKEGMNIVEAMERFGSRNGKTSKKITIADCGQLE
Summary of the method: (§1)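 TR-FRET (Ex320 nm, Em 665/615 nm) measured compound- or compound-CYPA-dependent disruption of KRAS-BRAF complex, with CYPA at 500 nM. Disruption scored as decrease in TR-FRET ratio versus DMSO control wells.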

[2] = target: KRAS G12D binding to BRAF (Homo sapiens, UniProt P01116+P62937, G12D); assay: KRAS-BRAF with CYPA (500 nM) interaction assay (TR-FRET), G12D; assay type: biochemical; settings: 3 hours
Chain of KRAS G12D binding to BRAF (P01116 1-188 isoform P01116-2 G12D): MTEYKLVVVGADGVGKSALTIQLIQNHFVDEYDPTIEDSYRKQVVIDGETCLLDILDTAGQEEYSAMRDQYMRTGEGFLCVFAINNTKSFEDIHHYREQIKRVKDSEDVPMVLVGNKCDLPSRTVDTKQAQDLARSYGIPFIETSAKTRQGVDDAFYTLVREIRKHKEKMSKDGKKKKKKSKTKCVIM
Chain of KRAS G12D binding to BRAF (P62937 whole entry): as the sequence (P62937 whole entry) above
Summary of the method: as §1

[3] = tested on: phosphorylation of ERK, KRAS G12C in NCI-H358 cells; assay: pERK inhibition assay, G12C; assay type: cell-based, human; settings: Homo sapiens; NCI-H358, 4 hours of incubation
Summary of the method: (§2)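 NCI-H358 (G12C), AGS (G12D) and SW620 (G12V) cells were seeded overnight at 30,000, 20,000 and 30,000 cells/well, respectively. They were then treated 4 h with compound (0.5% DMSO final), fixed, and methanol-permeabilized. pERK was detected by in-cell ELISA (anti-pERK/HRP, TMB, OD450); IC50 from a 4-parameter sigmoidal fit.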

[4] = tested on: phosphorylation of ERK, KRAS G12V in SW620; assay: pERK inhibition assay, G12V; assay type: cell-based, human; settings: Homo sapiens, SW-620; SW620, 4 hours of incubation
Summary of the method: as §2

SW620 cells (KRAS G12V) = assay: Cell viability assay, G12V; assay type: cell-based, human; settings: Homo sapiens, SW-620; SW620, 72 hrs, Cell Counting Kit-8
Summary of the method: (§3)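 72-hr compound treatment, 0.5% DMSO final; NCI-H358 seeded 5,000 cells/well, AGS and SW620 2,000 cells/well. Endpoint: CCK-8, 2-hr development, OD450 minus OD650.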

[5] = tested on: NCI-H358 cells (KRAS G12C); assay: Cell viability assay, G12C; assay type: cell-based, human; settings: Homo sapiens; NCI-H358, 72 hrs, Cell Counting Kit-8
Summary of the method: as §3

KRAS G12C-BRAF complex = target: T1, KRAS G12C-BRAF complex (Homo sapiens, UniProt P01116+P62937, G12C); assay: KRAS-BRAF with CYPA (500 nM) interaction assay (TR-FRET), G12C; assay type: biochemical; settings: 3 hours
T1 construct: expressed in transfected cells
T1 sequence (P01116 1-188 isoform P01116-2 G12C): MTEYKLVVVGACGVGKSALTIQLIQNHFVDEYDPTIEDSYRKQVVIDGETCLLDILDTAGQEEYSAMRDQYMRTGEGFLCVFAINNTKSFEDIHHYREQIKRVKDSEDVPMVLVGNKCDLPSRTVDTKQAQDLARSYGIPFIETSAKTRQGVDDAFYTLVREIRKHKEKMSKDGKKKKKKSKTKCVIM
T1 sequence (P62937 whole entry): as the sequence (P62937 whole entry) above
Summary of the method: as §1

[6] = tested on: phosphorylation of ERK, KRAS G12D in AGS cells; assay: pERK inhibition assay, G12D; assay type: cell-based, human; settings: Homo sapiens, 4 hours of incubation
Summary of the method: as §2

[7] = 1 μM compound, human hepatocytes 1×10^6 cells/mL

CL_hep (Human) (human hepatocytes; [7]) | IC50 [1] | IC50 [2] | IC50 [3] | IC50 [4] | IC50 (SW620 cells (KRAS G12V)) | IC50 [5] | IC50 (KRAS G12C-BRAF complex) | IC50 [6] | CL_hep (Human) (human hepatocytes; human, 1 μM) | SMILES | Clearance Category (human hepatocytes)
2.9 mL/min/kg | > 10 µM | > 10 µM | 0.005 µM | 0.125 µM | > 5 µM | 0.019 µM | 0.118 µM | > 10 µM | – | CCn1c(-c2cc(N3CCN(CC(F)(F)F)CC3)cnc2[C@H](C)OC)c2c3cc(c(F)cc31)-c1csc(n1)C[C@H](NC(=O)[C@H](C(C)C)N(C)C(=O)[C@H]1C[C@@H](C#CC(F)(F)F)C1)C(=O)N1CCC[C@H](N1)C(=O)OCC(C)(C)C2 (atropisomer, axis not shown; (M)) [Example 8, cis-N-[(1S)-1-[[(7S,13S)-21-ethyl-24-fluoro-(20M)-20-[2-[(1S)-1-methoxyethyl]-5-[4-(2,2,2-trifluoroethyl)piperazin-1-yl]-3-pyridyl]-17,17-dimethyl-8,14-dioxo-15-oxa-4-thia-9,21,27,28-tetrazapentacyclo[17.5.2.1^2,5.1^9,13.0^22,26]octacosa-1(25),2,5(28),19,22(26),23-hexaen-7-yl]carbamoyl]-2-methyl-propyl]-N-methyl-3-(3,3,3-trifluoroprop-1-ynyl)cyclobutanecarboxamide] | low (CL_hep (mL/min/kg)<6.96 is low clearance)
– | > 10 µM | > 10 µM | 0.007 µM | 0.009 µM | 2.18 µM | 0.003 µM | 0.099 µM | 0.378 µM | 3.6 mL/min/kg | CO[C@@H](C)c1ncc(N2CCN(C)CC2)cc1-c1c2c3cc(c(F)cc3n1CC(F)(F)F)-c1csc(n1)C[C@H](NC(=O)[C@H](C(C)C)N(C)C(=O)[C@H]1C[C@@H](C#CC(F)(F)F)C1)C(=O)N1CCC[C@H](N1)C(=O)OCC(C)(C)C2 (atropisomer, axis not shown; (M)) [Example 3, cis-N-[(1S)-1-[[(7S,13S)-24-fluoro-(20M)-20-[2-[(1S)-1-methoxyethyl]-5-(4-methylpiperazin-1-yl)-3-pyridyl]-17,17-dimethyl-8,14-dioxo-21-(2,2,2-trifluoroethyl)-15-oxa-4-thia-9,21,27,28-tetrazapentacyclo[17.5.2.1^2,5.1^9,13.0^22,26]octacosa-1(25),2,5(28),19,22(26),23-hexaen-7-yl]carbamoyl]-2-methyl-propyl]-N-methyl-3-(3,3,3-trifluoroprop-1-ynyl)cyclobutanecarboxamide] | –
3.3 mL/min/kg | > 10 µM | > 10 µM | 0.011 µM | 0.187 µM | 1.37 µM | 0.002 µM | 0.065 µM | 3.77 µM | – | CCn1c(-c2cc(N3CCOCC3)cnc2[C@H](C)OC)c2c3cc(c(F)cc31)-c1csc(n1)C[C@H](NC(=O)[C@H](C(C)C)N(C)C(=O)[C@H]1C[C@@H](C#CC(F)(F)F)C1)C(=O)N1CCC[C@H](N1)C(=O)OCC(C)(C)C2 (atropisomer, axis not shown; (M)) [Example 11, cis-N-[(1S)-1-[[(7S,13S)-21-ethyl-24-fluoro-(20M)-20-[2-[(1S)-1-methoxyethyl]-5-morpholino-3-pyridyl]-17,17-dimethyl-8,14-dioxo-15-oxa-4-thia-9,21,27,28-tetrazapentacyclo[17.5.2.1^2,5.1^9,13.0^22,26]octacosa-1(25),2,5(28),19,22(26),23-hexaen-7-yl]carbamoyl]-2-methyl-propyl]-N-methyl-3-(3,3,3-trifluoroprop-1-ynyl)cyclobutanecarboxamide] | low (CL_hep (mL/min/kg)<6.96 is low clearance)
8.8 mL/min/kg | 3.62 µM | > 10 µM | 0.053 µM | 0.176 µM | 0.121 µM | 0.011 µM | 0.173 µM | – | – | CC#CC(=O)N1CC[C@H](C(=O)N(C)[C@H](C(=O)N[C@H]2Cc3nc(cs3)-c3ccc4c(c3)c(c(-c3cccnc3[C@H](C)OC)n4CC)CC(C)(C)COC(=O)[C@@H]3CCCN(N3)C2=O)C(C)C)C1 [Example A168, reference compound] | medium (16.24<CL_hep (mL/min/kg) >6.96 is medium clearance)

Source: US20250257075A1, “MACROCYCLIC INHIBITORS OF KRAS FOR THE TREATMENT OF CANCER” (Hoffmann-La Roche Inc., priority 2022, published 2025)
